Data: patent US9371351B2, “Glycomimetics as Pseudomonas aeruginosa lectin inhibitors” (priority 2012, dated 2016)
Read-outs that look alike come from different tables or passages of the source.

What was measured:
LecB [1] = target: T1, LecB (Pseudomonas aeruginosa, UniProt Q9HYN5); assay: Binding thermodynamics to LecB by isothermal calorimetry; settings: average of two measurements
LecB [2] = target: T1, LecB; settings: LecB 13 μg/mL and S. cerevisiae
Description: (§2) This agglutination could then be disrupted by addition of inhibitors of LecB.
(§3) For the yeast agglutination, PBS-washed S. cerevisiae strain ss328 was used instead of sheep red blood cells, without papain treatment.

LecB [3] = target: T1, LecB; settings: LecB and papain treated sheep erythrocytes
Description: as §2, §3

LecB [4] = target: T1, LecB; assay: biochemical; type: binding; settings: for rIC50 (MeMan): IC50 relative to Me-α-Man, below 1 = stronger ligand than Me-α-Man
Procedure: A LecB competition assay was carried out by a novel fluorescence polarization assay developed by the inventors of the present invention. To date, an enzyme-linked lectin assay (ELLA) is widely used for the evaluation in screening of the binding potential of ligands to LecB. This allows the evaluation of molecules over a broad affinity range, including monovalent ligands and oligomeric dendrimers thereof. ELLAs have been developed based on enzyme-linked immunosorbent assays (ELISA). […] Furthermore, the current ELLA protocol involves either a surface immobilization of LecB or a covalent modification of the lectin, which could interfere with ligand binding. Consequently, hits from the ELLA are usually further characterized by direct measurement of the binding process of the ligand with the native, unmodified protein using microcalorimetry, requiring large amounts of protein.
(§1) In this assay format, the displacement of a fluorescently-labeled reporter ligand bound to the receptor by an inhibitor can be measured by mixing protein, inhibitor and reporter ligand in a given buffer system.
Similar conditions were applied, but the protein concentration was fixed at 150 nM. […] The resulting sigmoidal data points on the logarithmic inhibitor concentration scale were used to fit a one-site inhibition model and obtain IC50 values.
After addition of the reagents, the microtiter plates were centrifuged at 800 rpm for 1 min at 23° C. and incubated for 6 h at room temperature. The fluorescence was measured on a Tecan […] F500 plate reader (Tecan Austria GmbH) with excitation filters at 485 nm and emission filters at 535 nm in black 384-well microtiter plates (Greiner Bio-One). The G-factor was set on 0.92154 and the gain to 80. The measured intensities were reduced by buffer values. The data were analyzed with Graphpad Prism 5 and fitted according to the four parameter variable slope model.

LecB [5] = target: T1, LecB; assay: biochemical; type: binding
Description: as §1

LecB [6] = target: T1, LecB; assay: biochemical; type: binding; settings: for kd: SPR, 1:1 binding model; for kon: pH 7.4, read-out: ka

T1 sequence (Q9HYN5 entry or part of it): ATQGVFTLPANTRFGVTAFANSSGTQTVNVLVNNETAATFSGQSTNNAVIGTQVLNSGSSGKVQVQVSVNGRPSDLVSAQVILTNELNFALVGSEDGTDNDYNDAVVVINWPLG

Row | Structure (SMILES) | IC50 (LecB [4]) [µM] | rIC50 (MeMan) (LecB [4]) | other results
1 | CO[C@H]1O[C@H](CO)[C@@H](O)[C@H](O)[C@@H]1O [Me-α-D-Man, methyl α-D-mannopyranoside, reference compound] |  |  | TΔS (LecB [1]): 2.6 kcal/mol; ΔH (LecB [1]): -3.2 kcal/mol; inhibition of agglutination at (concentration) (LecB [2]): 444 µM; inhibited agglutination at (concentration) (LecB [3]): 113 µM
2 | CO[C@H]1O[C@H](CNC(=O)Cc2ccccc2)[C@@H](O)[C@H](O)[C@@H]1O [11q, Methyl 6-(phenylacetamido)-6-deoxy-α-D-mannopyranoside] | 205 | 0.93 | 
3 | CO[C@H]1O[C@H](CNC(=O)/C=C/c2ccc(Cl)cc2)[C@@H](O)[C@H](O)[C@@H]1O [11l, Methyl 6-(4-chlorocinnamido)-6-deoxy-α-D-mannopyranoside] | 48.4 | 0.22 | 
4 | CO[C@H]1O[C@H](CNC(=O)c2ccccc2Cl)[C@@H](O)[C@H](O)[C@@H]1O [11s, Methyl 6-(2-chlorobenzoylamido)-6-deoxy-α-D-mannopyranoside] | 239 | 1.09 | 
5 | CO[C@H]1O[C@H](CNS(=O)(=O)c2ccc(C)cc2)[C@@H](O)[C@H](O)[C@@H]1O [10b, Methyl 6-(p-tosylamido)-6-deoxy-α-D-mannopyranoside] | 68.2 | 0.31 | 
6 | CO[C@H]1O[C@H](CNC(=O)/C=C/c2ccc(C)cc2)[C@@H](O)[C@H](O)[C@@H]1O [11k, Methyl 6-(4-methylcinnamido)-6-deoxy-α-D-mannopyranoside] |  | 0.16 | 
7 | CO[C@H]1O[C@H](CNC(=O)/C=C/c2ccc(Cl)cc2Cl)[C@@H](O)[C@H](O)[C@@H]1O [11m, Methyl 6-(2,4-dichlorocinnamido)-6-deoxy-α-D-mannopyranoside] | 71 | 0.32 | 
8 | CC1OC(OCCNC(=S)Nc2ccc(-c3c4ccc(=O)cc-4oc4cc(O)ccc34)c(C(=O)O)c2)C(O)C(O)C1O (mixture of isomers) [reporter ligand 3, N-(fluorescein-5-yl)-N′-(α-L-fucopyranosylethylen)-thiocarbamide] |  |  | EC50 (LecB [5]): 0.697 µM
9 | COC1O[C@H](CNS(=O)(=O)/C=C/c2ccccc2)C(O)C(O)[C@@H]1O (stereo partly drawn) [compound 14, Methyl 6-(trans-β-styrenesulfonylamido)-6-deoxy-α-D-mannopyranoside] | 79 |  | 
10 | CO[C@H]1O[C@H](CNC(=O)/C=C/c2ccc3c(c2)OCO3)[C@@H](O)[C@H](O)[C@@H]1O [11o, Methyl 6-(3,4-methylenedioxycinnamido)-6-deoxy-α-D-mannopyranoside] | 31.8 | 0.15 | 
11 | COc1ccccc1/C=C/C(=O)NC[C@H]1O[C@H](OC)[C@@H](O)[C@@H](O)[C@@H]1O [11b, Methyl 6-(2-methoxycinnamido)-6-deoxy-α-D-mannopyranoside] | 45.8 | 0.21 | 
12 | CO[C@H]1O[C@H](CNC(=O)c2ccc([N+](=O)[O-])cc2)[C@@H](O)[C@H](O)[C@@H]1O [11r, Methyl 6-(4-nitrobenzoylamido)-6-deoxy-α-D-mannopyranoside] | 206 | 0.94 | 
13 | CO[C@H]1O[C@H](CNC(=O)/C=C/c2cccc([N+](=O)[O-])c2)[C@@H](O)[C@H](O)[C@@H]1O [11f, Methyl 6-(3-nitrocinnamido)-6-deoxy-α-D-mannopyranoside] | 53.4 | 0.25 | 
14 | CO[C@H]1O[C@H](CNC(=O)/C=C/c2ccccc2C)[C@@H](O)[C@H](O)[C@@H]1O [11e, Methyl 6-(2-methylcinnamido)-6-deoxy-α-D-mannopyranoside] | 62.7 | 0.29 | 
15 | CO[C@H]1O[C@H](CNC(=O)/C=C/c2ccc([N+](=O)[O-])cc2)[C@@H](O)[C@H](O)[C@@H]1O [11i, Methyl 6-(4-nitrocinnamido)-6-deoxy-α-D-mannopyranoside] | 106 | 0.49 | 
16 | CO[C@H]1O[C@H](CNC(=O)/C=C/c2ccc(N)cc2)[C@@H](O)[C@H](O)[C@@H]1O [11j, Methyl 6-(4-aminocinnamido)-6-deoxy-α-D-mannopyranoside] | 53.2 | 0.24 | 

Row | Structure (SMILES) | IC50 (LecB [4]) [µM] | rIC50 (MeMan) (LecB [4]) | other results
17 | O=C1OC2(c3ccc(O)cc3Oc3cc(O)ccc32)c2ccc(NC(=S)NCCO[C@H]3O[C@H](CO)[C@@H](O)[C@H](O)[C@@H]3O)cc21 [reporter ligand 5, N-(fluorescein-5-yl)-N′-(α-D-mannopyranosylethylen)-thiocarbamide] |  |  | EC50 (LecB [5]; titration of reporter ligand with LecB, fluorescence polarization, read-out: EC50): > 16 µM
18 | Cc1cc(C)c(S(=O)(=O)NC[C@H]2OC(C)[C@@H](O)C(O)C2O)c(C)c1 (stereo partly drawn) [13b, N-(6S-Methyl-3R,4R,5R-trihydroxy-tetrahydropyranosyl-2R-methyl)-2,4,6-trimethylphenyl sulfonamide] |  |  | kd (LecB [6]): 0.00041 s⁻¹; kon (LecB [6]): 1260 M⁻¹ s⁻¹
19 | CO[C@H]1O[C@H](CNC(=O)c2ccc3ccccc3c2)[C@@H](O)[C@H](O)[C@@H]1O [11t, Methyl 6-(2-naphtoylamido)-6-deoxy-α-D-mannopyranoside] | 118 | 0.54 | 
20 | CO[C@H]1O[C@H](CNC(=O)/C=C/c2ccccc2)[C@@H](O)[C@H](O)[C@@H]1O [11a, Methyl 6-(cinnamido)-6-deoxy-α-D-mannopyranoside] |  | 0.3 | TΔS (LecB [1]): 3.4 kcal/mol; ΔH (LecB [1]): -2.9 kcal/mol; inhibition of agglutination at (concentration) (LecB [2]): 197 µM; inhibited agglutination at (concentration) (LecB [3]): 23 µM
21 | CO[C@H]1O[C@H](CNS(=O)(=O)c2ccc([N+](=O)[O-])cc2)[C@@H](O)[C@H](O)[C@@H]1O [10d, Methyl 6-(4-nitrophenylsulfonylamido)-6-deoxy-α-D-mannopyranoside] | 47.4 | 0.21 | 
22 | CO[C@H]1O[C@H](CNS(=O)(=O)c2ccc(Br)cc2)[C@@H](O)[C@H](O)[C@@H]1O [10c, Methyl 6-(4-bromophenylsulfonylamido)-6-deoxy-α-D-mannopyranoside] | 24.9 | 0.12 | 
23 | CO[C@H]1O[C@H](CNC(=O)/C=C/c2cccc(N)c2)[C@@H](O)[C@H](O)[C@@H]1O [11g, Methyl 6-(3-aminocinnamido)-6-deoxy-α-D-mannopyranoside] | 63 | 0.29 | 
24 | CO[C@H]1O[C@H](CNS(=O)(=O)c2c(C(C)C)cc(C(C)C)cc2C(C)C)[C@@H](O)[C@H](O)[C@@H]1O [10f, Methyl 6-(2,4,6-triisopropylphenylsulfonylamido)-6-deoxy-α-D-mannopyranoside] | 11.5 | 0.05 | 
25 | CC1OC(CNC(=O)/C=C/c2ccccc2)C(O)C(O)[C@@H]1O (stereo partly drawn) [compound 13, N-(6S-Methyl-3R,4R,5R-trihydroxy-tetrahydropyranosyl-2R-methyl)-cinnamide] |  | 0.1 | kd (LecB [6]): 0.00041 s⁻¹; kon (LecB [6]): 255 M⁻¹ s⁻¹
26 | CO[C@H]1O[C@H](CNS(=O)(=O)c2ccccc2)[C@@H](O)[C@H](O)[C@@H]1O [10a, Methyl 6-(phenylsulfonylamido)-6-deoxy-α-D-mannopyranoside] |  | 0.09 | 
27 | CO[C@H]1O[C@H](CNC(=O)/C=C/c2ccccc2N)[C@@H](O)[C@H](O)[C@@H]1O [11d, Methyl 6-(2-aminocinnamido)-6-deoxy-α-D-mannopyranoside] | 52.6 | 0.24 | 
28 | COc1ccc(/C=C/C(=O)NC[C@H]2O[C@H](OC)[C@@H](O)[C@@H](O)[C@@H]2O)cc1OC [11n, Methyl 6-(3,4-dimethoxycinnamido)-6-deoxy-α-D-mannopyranoside] |  | 0.13 | kd (LecB [6]): 0.0013 s⁻¹
29 | CO[C@H]1O[C@H](CNC(=O)/C=C/c2ccccc2[N+](=O)[O-])[C@@H](O)[C@H](O)[C@@H]1O [11c, Methyl 6-(2-nitrocinnamido)-6-deoxy-α-D-mannopyranoside] | 75.5 | 0.35 | 
30 | CO[C@H]1O[C@H](CNS(=O)(=O)c2c(C)cc(C)cc2C)[C@@H](O)[C@H](O)[C@@H]1O [10e, Methyl 6-(2,4,6-trimethylphenylsulfonylamido)-6-deoxy-α-D-mannopyranoside] |  | 0.015 | 
31 | COc1ccc(/C=C/C(=O)NC[C@H]2O[C@H](OC)[C@@H](O)[C@@H](O)[C@@H]2O)cc1 [11h, Methyl 6-(4-methoxycinnamido)-6-deoxy-α-D-mannopyranoside] | 66 | 0.3 | 
32 | CC1O[C@H](CNS(=O)(=O)/C=C/c2ccccc2)C(O)C(O)[C@@H]1O (stereo partly drawn) [compound 15, N-(6S-Methyl-3R,4R,5R-trihydroxy-tetrahydropyranosyl-2R-methyl)-trans-β-styrene sulfonamide] | 12.7 |  | 
